From US20060003992A1, “New drug combinations” (Pharmacia & Upjohn Company, LLC, priority 2001, published 2006)

System: mice
Test: conditioned avoidance response assay
Type: in vivo
Details: tested 20 min after
Protocol: Eleven mice per sample group are tested using a conditioned avoidance response assay, which can be used to predict the likelihood of possible detrimental side effects associated with the administration of a neuroleptic agent. The regimen included a pre-treatment with either saline or reboxetine (at a dosage of 6 mg/kg, i.p.) followed thirty minutes afterwards by treatment with either saline or raclopride (0.05 mg/kg or 0.10 mg/kg, s.c.). The mice are tested in the assay twenty minutes after administration of the saline or raclopride. The mean average avoidance as measured by the assay for the six different sample groups are as follows: […]

SMILES	mean average avoidance (saline pre-treatment, 30 min later raclopride 0.05 mg/kg s.c.)	mean average avoidance (saline pre-treatment, 30 min later raclopride 0.10 mg/kg s.c.)	mean average avoidance (reboxetine 6 mg/kg i.p. pre-treatment, 30 min later saline)
CCN1CCC[C@H]1CNC(=O)c1c(O)c(Cl)cc(Cl)c1OC [raclopride]	90	70	
CCOc1ccccc1OC(c1ccccc1)C1CNCCO1 (stereo not drawn) [reboxetine]			100
